Data on 11 compounds can be found in paper PMC9862111, “Isolation of the Lanostane Triterpenes Pholiols L–S from Pholiota populnea and Evaluation of Their Antiproliferative and Cytotoxic Activities” (Pharmaceuticals, 2023).

In data set [1] the test system is Colo 320. Briefly: Cytotoxic MTT assay, 24 h. To be noted: for IC50: Homo sapiens, COLO 320, 24 h, read-out: Cytotoxic activity IC50 Colo 320 (B) Mean; for RR (relative resistance ratio) (B/A): IC50 resistant (Colo 320)/IC50 sensitive (Colo 205), cytotoxic assay. For orientation: Formazan colour is commonly taken as a measure of viable cells.
Procedure: (§2) Cell Line Cultures: The human colon adenocarcinoma cell lines, Colo 205 (ATCC-CCL-222) doxorubicin-sensitive parent and Colo320/MDR-LRP (ATCC-CCL-220.1) doxorubicin resistant expressing ABCB1, were purchased from LGC Promochem (Teddington, UK). The cells were cultured in RPMI-1640 medium supplemented with 10% heat-inactivated fetal bovine serum (FBS), 2 mM L-glutamine, 1 mM Na-pyruvate, 100 mM HEPES. The MRC-5 (ATCC CCL-171) human embryonic lung fibroblast cell line and the hormone-responsive breast cancer cell line MCF-7 (ATCC HTB-22) were purchased from Sigma-Aldrich (Merck KGaA, Darmstadt, Germany). The MCF-7 and MRC-5 cells were cultured in Eagle’s Minimal Essential Medium (EMEM) containing 4.5 g/L of glucose and supplemented with a non-essential amino acid mixture, a selection of vitamins, and 10% FBS. The cell lines were incubated at 37 °C, 5% CO2, and 95% air atmosphere. The cells were detached with Trypsin-Versene (EDTA) solution for 5 min at 37 °C. The human non-small cell lung cancer cell line A549 was kindly provided by Brigitte Marian (Institute of Cancer Research, Department of Medicine I, Medical University of Vienna, Austria). A549 cells were grown in Eagle’s Minimal Essential Medium (EMEM) supplemented with 10% heat-inactivated fetal bovine serum.
(§3) Assay for Cytotoxic Effect: The effects of increasing concentrations of the compounds on cell growth were tested in 96-well flat-bottomed microtiter plates, as described for the antiproliferative assay, using 1 × 10^4 cells/well. The culture plates were incubated at 37 °C for 24 h; at the end of the incubation period, 20 μL of MTT solution (from a 5 mg/mL stock solution) was added to each well. After incubation at 37 °C for 4 h, 100 μL of sodium dodecyl sulfate (SDS) solution (10% SDS in 0.01 M HCl) was added to each well, and the plates were further incubated at 37 °C overnight. Cell growth was determined by measuring the optical density (OD) at 540 nm (ref 630 nm) with a Multiscan EX ELISA reader (Thermo Labsystems, Cheshire, WA, USA).
(§4) Sample preparation: The compounds were dissolved in DMSO to achieve the final concentration of 5 mM. The starting concentration of the compounds was 100 µM and 2-fold serial dilutions were prepared for the antiproliferative and cytotoxic assays. The following concentrations were used: 100-50-25-12.5-6.25-3.125-1.56-0.78-0.39-0.195 µM.
Data set [2] relates to Colo 320. Briefly: Antiproliferative MTT assay, 72 h. It counts as cell-based. To be noted: Homo sapiens, 6 × 10^3 cells/well, resistant colon adenocarcinoma. The method, then:
(§1) Antiproliferative Assays: The antiproliferative effect of the compounds was tested in decreasing serial dilutions of compounds (starting with 100 µM, then two-fold serial dilution) on human cell lines (Colo 205, Colo 320, MCF-7, A549, and MRC-5) in 96-well flat-bottomed microtiter plates. Firstly, the compounds were diluted in 100 µL of the medium, and then, 6 × 10^3 cells (Colo 205, Colo 320) in 100 µL of RPMI medium were added to each well, excluding the medium control wells. The adherent MCF-7, A549, and MRC-5 cells (6 × 10^3 cells/well) were seeded in EMEM medium for at least 4 h before the assay. The two-fold serial dilutions of the compounds were made in a separate plate (100–0.19 μM) and then transferred to the plates containing the adherent-corresponding cell line. […] The percentage of inhibition of cell growth was determined according to Equation (1), and expressed as IC50 values, defined as the concentration that induces 50% growth inhibition. IC50 values and the standard deviation (SD) of triplicate experiments were calculated using GraphPad Prism 5 software for Windows. Doxorubicin (2 mg/mL, Teva Pharmaceuticals, Budapest, Hungary) was used as a positive control and the vehicle DMSO as the negative control (Table 3). (1) […][ODsample−ODmedium control/ODcell control−ODmedium control]×100

The test system of data set [3] is MRC-5. The experiment in a line: Antiproliferative MTT assay, 72 h. It counts as cell-based. The conditions noted are these: Homo sapiens, MRC5, 6 × 10^3 cells/well, normal embryonic lung fibroblast. The method, then: as §1
For data set [4], the system named is A549. Briefly: Antiproliferative MTT assay, 72 h. It counts as cell-based. To be noted: Homo sapiens, 6 × 10^3 cells/well, non-small cell lung cancer. The method, then: as §1
The subject of data set [5] is Colo 205. The experiment in a line: Antiproliferative MTT assay, 72 h. It counts as cell-based, human. The conditions noted are these: for IC50: MTT, 72 h, 6 × 10^3 cells/well, sensitive colon adenocarcinoma; for Selectivity index (SI), Colo 205: antiproliferative assay, Colo 205 versus non-cancerous MRC-5. The method, then: as §1
For data set [6], the system named is MCF-7. Briefly: Antiproliferative MTT assay, 72 h. The format is cell-based, human. To be noted: for IC50: Homo sapiens, MCF7, MTT, 72 h, 6 × 10^3 cells/well, breast cancer; for Selectivity index (SI), MCF-7: antiproliferative assay, MCF-7 versus non-cancerous MRC-5. The method, then:
as §1

Data set [7] deals with treated cancer cells. The experiment in a line: Antiproliferative MTT assay, summary over cancer cell lines. It counts as cell-based, human. The conditions noted are these: versus MRC-5. The method, then: as §1
The test system of data set [8] is MCF-7. Briefly: Cytotoxic MTT assay, 24 h. To be noted: Homo sapiens, MCF7, 24 h, read-out: Cytotoxic activity IC50 MCF-7 Mean.
Procedure: as §2, §3, §4
For data set [9], the system named is A549. Briefly: Cytotoxic MTT assay, 24 h. The conditions noted are these: Homo sapiens, A549, 24 h, read-out: Cytotoxic activity IC50 A549 Mean.
Procedure: as §2, §3, §4
For data set [10], the system named is Colo 205. The experiment in a line: Cytotoxic MTT assay, 24 h. The conditions noted are these: Homo sapiens, COLO 205, 24 h, read-out: Cytotoxic activity IC50 Colo 205 (A) Mean.
Procedure: as §2, §3, §4
Data set [11] in a line: in vitro. To be noted: human.
Procedure: as §2, §3, §4
In data set [12] the test system is MCF-7.
Procedure: as §2, §3, §4
A short description of data set [13]: Cytotoxic MTT assay, 24 h. The conditions noted are these: human, MRC-5 embryonic lung fibroblast cells.
Procedure: as §2, §3, §4
Data set [14] relates to sensitive (Colo 205) colon adenocarcinoma cells. Also on record: method as in PMID 35293752. The conditions noted are these: read-out: Cytotoxic activity IC50 Colo 205; cited from earlier work.
The subject of data set [15] is resistant colon adenocarcinoma cells (Colo 320). Details: method as in PMID 35293752. To be noted: read-out: Cytotoxic activity IC50 Colo 320; cited from earlier work.
Data set [16] deals with p-glycoprotein (ABCB1) efflux pump. Also on record: method as in PMID 35293752. The conditions noted are these: resistant Colo 320 cells; cited from earlier work.
The subject of data set [17] is Colo 320 cells. Details: method as in PMID 35293752. To be noted: checkerboard method; cited from earlier work.
Data set [18] relates to COX-2. Details: method as in PMID 36279964. The conditions noted are these: read-out: IC50 against COX-2; cited from earlier work.
Data set [19] deals with 5-LOX. Details: method as in PMID 36279964. To be noted: read-out: IC50 against 5-LOX; cited from earlier work.

The term IC50 denotes the concentration needed to halve the response being measured. As to `COC(=O)CC(C)(O)CC(=O)OC1C(O)CC2(C)C3=C(C(=O)CC2C1(C)C)C1(C)CCC(C(C)CCC(=O)C(C)(C)O)C1(C)CC3` (stereo not drawn) [Compound 1, pholiol L], the IC50 in data set [1] came out at 33.9 µM; in data set [2], 28.1 µM; in data set [3] it was 70.9 µM; in data set [4] it was 53.7 µM; in [5] (Homo sapiens, COLO 205, 72 h), 32.4 µM; in data set [6] it was 21.7 µM. The IC50 amounted to 43.7 µM in [8], 93.6 µM in data set [9] and 40.3 µM in [10]. For the same compound, the “RR (relative resistance ratio) (B/A)” value in data set [1] came to 0.84. For the same compound, the “Selectivity to cancerous cell lines over normal cells” value (“Selectivity to cancerous cell lines” for short) in [7] is listed as “did not display selectivity”. The compound further came in with an IC50 at 24 h in data set [11] of 66.1 µM.
For `COC(=O)CC(C)(O)CC(=O)OC1CC2(C)C3=C(C(=O)CC2C(C)(C)C1OC(C)=O)C1(C)CCC(C(C)CCC(=O)C(C)(C)O)C1(C)CC3O` (stereo not drawn) [Compound 2, pholiol M], the “Cytotoxic activity IC50 MCF-7 Mean” value in [12] was “did not show a cytotoxic effect”. Further, the IC50 in [1] was 67.2 µM; in [2], 32.5 µM; in data set [3], greater than 100 µM; in data set [4] it was greater than 100 µM; in data set [5] (Homo sapiens, COLO 205, 72 h), 23.9 µM; in [6], 2.48 µM. Moreover, the IC50 is greater than 100 µM in [8], 58.1 µM in data set [9] and 35.9 µM in data set [10]. Also, in data set [1], the “RR (relative resistance ratio) (B/A)” value is reported as 1.87. Besides, the “Selectivity index (SI), Colo 205” value in data set [5] was greater than 4.18. In addition, in data set [6], the “Selectivity index (SI), MCF-7” value was greater than 40. Moreover, the IC50 at 24 h in [11] was greater than 100 µM.
With `COC(=O)C[C@@](C)(O)CC(=O)O[C@@H]1C[C@]2(C)C3=C(C(=O)C[C@H]2C(C)(C)[C@H]1OC(C)=O)[C@]1(C)CC[C@H]([C@H](C)CCC(=O)C(C)(C)O)[C@@]1(C)CC3=O` [Compound 4, pholiol O], in data set [12], the “Cytotoxic activity IC50 MCF-7 Mean” value is “did not show a cytotoxic effect”. The IC50 in data set [1] was 91.5 µM; in [2], 42.1 µM; in [3], 42.9 µM; in data set [4] it was 51.5 µM; in data set [5] (Homo sapiens, COLO 205, 72 h) it was 23.3 µM; in data set [5] it was 23.4 µM. Besides, the IC50 in data set [6] is 9.95 µM; in [8] it was greater than 100 µM; in data set [9], 56.9 µM; in [10], 31.5 µM. For the same compound, the “RR (relative resistance ratio) (B/A)” value in data set [1] worked out at 2.90. Moreover, the “Selectivity index (SI), Colo 205” value in [5] was 1.8. In addition, in data set [6], the “Selectivity index (SI), MCF-7” value is 4.3. In data set [11], this compound returned an IC50 at 24 h of 58 µM.
`CC(=O)O[C@H]1[C@H](OC(=O)C[C@](C)(O)CC(=O)O)C[C@]2(C)C3=CC[C@]4(C)[C@@H]([C@H](C)CCC(=O)C(C)(C)O)CC[C@@]4(C)C3=CC[C@H]2C1(C)C` [Compound 6, pholiol Q]: the IC50 was 34.7 µM in data set [1]; 69.2 µM in [2]; greater than 100 µM in [3]; 51.2 µM in data set [4]; 50 µM in data set [5] (Homo sapiens, COLO 205, 72 h); 46.3 µM in [6]. For the same compound, the IC50 in [8] worked out at 43.8 µM; in [9], 85.9 µM; in data set [10], 56.1 µM. Besides, the “RR (relative resistance ratio) (B/A)” value in data set [1] is recorded as 0.62. Moreover, the “Selectivity to cancerous cell lines” value in data set [7] is reported as “did not display selectivity”. Moreover, the IC50 at 24 h in [11] is greater than 100 µM.
For `COC(=O)C[C@@](C)(O)CC(=O)O[C@@H]1C[C@]2(C)C3=C(C(=O)C[C@H]2C(C)(C)[C@H]1OC(C)=O)[C@]1(C)CC[C@H]([C@H](C)CCC(=O)O)[C@@]1(C)CC3` [Compound 8, pholiol S], the IC50 in data set [1] was 57.5 µM; in data set [2], 68.5 µM; in data set [3], greater than 100 µM; in data set [4], 89.8 µM; in [5] (Homo sapiens, COLO 205, 72 h), 59.9 µM; in [6], 35.3 µM. Also, the IC50 in data set [8] is 43 µM; in [9], 83.7 µM; in [10], 57.5 µM. For the same compound, the “RR (relative resistance ratio) (B/A)” value in [1] came out at 1.0. The “Selectivity to cancerous cell lines” value in data set [7] is “did not display selectivity”. The IC50 at 24 h in data set [11] was found to be 55.3 µM.
In the case of `COc1cccc2c1C(=O)c1c(O)c3c(c(O)c1C2=O)C[C@@](O)(C(=O)CO)C[C@@H]3O[C@H]1C[C@H](N)[C@H](O)[C@H](C)O1` [Dox, doxorubicin, reference compound], the half-maximal inhibitory concentration (IC50) is 12 µM in data set [1]; 0.25 µM in data set [2]; 0.52 µM in data set [3]; 1.04 µM in data set [4]; 0.0617 µM in data set [5] (Homo sapiens, COLO 205, 72 h); 0.155 µM in data set [6]. Besides, the IC50 in data set [8] is 5.73 µM; in data set [9], 10.2 µM; in [10], 3.32 µM. In addition, the “RR (relative resistance ratio) (B/A)” value in data set [1] was 3.60. In [13], this compound had an IC50 at 24 h of 3.6 µM.
As for `CC(C)[C@@H](C)/C=C/[C@@H](C)[C@H]1CC[C@H]2C3=CC=C4C[C@@H](O)CC[C@]4(C)[C@H]3CC[C@]12C` [Ergosterol], the concentration for half-maximal inhibition (IC50) is 4.9 µM in data set [14] and 6.5 µM in data set [15].
For the compound `COC(=O)C[C@@](C)(O)CC(=O)O[C@@H]1C[C@]2(C)C3=C(C(=O)C[C@H]2C(C)(C)[C@H]1OC(C)=O)[C@]1(C)CC[C@H]([C@H](C)CCC(=O)C(C)(C)O)[C@@]1(C)CC3` [pholiol B], the “p-glycoprotein (ABCB1) efflux pump inhibitory activity” value in data set [16] is on record as “inhibitory activity was found”. Also, the “Drug interaction with doxorubicin” value in [17] is given as “interacted in a synergistic manner”.
Regarding `COC(=O)C[C@@](C)(O)CC(=O)O[C@@H]1C[C@]2(C)C3=C(CC[C@H]2C(C)(C)[C@H]1OC(C)=O)[C@]1(C)CC[C@H]([C@H](C)CCC(=O)C(C)(C)O)[C@@]1(C)[C@H](O)C3` [pholiol D], the “Drug interaction with doxorubicin” value in data set [17] is “interacted in a synergistic manner”.
Consider Pholiol F, for which the results for the IC50 in data set [18] and in data set [19] were 440 µM and 194 µM, respectively.
Consider pholiol A, for which, in [16], the “p-glycoprotein (ABCB1) efflux pump inhibitory activity” value is on record as “inhibitory activity was found”.
